The source of these data is patent publication US9930893B2, “Inhibitors of DXP synthase and methods of use thereof” (The Johns Hopkins University, priority 2014, dated 2018).

Converted amounts (≈) assume the structure as drawn. Read-outs that look alike come from different tables or passages of the source.

Broadly, the Ki is the equilibrium dissociation constant of an inhibitor or competing ligand from its target. In general, MIC refers to the least concentration at which growth counts as inhibited. A lower MIC goes with inhibition by little substance. By IC50 is commonly meant the concentration at which inhibition is half-maximal. Usually Km stands for the concentration of substrate that gives half-maximal velocity. A word on the kcat: it is the number of substrate molecules converted per active site and unit of time at saturation.

The target in test [1] is Porcine pyruvate dehydrogenase (PDH E1 subunit). As to conditions: Table 5, value marked with reference superscript; cited from earlier work.
Test [2] concerns the target T1, Porcine pyruvate dehydrogenase (PDH E1 subunit) (Sus scrofa, UniProt P29804).
T1 construct: Ki^PDH; μM); Ki^PDH
T1 sequence (P29804 1-390): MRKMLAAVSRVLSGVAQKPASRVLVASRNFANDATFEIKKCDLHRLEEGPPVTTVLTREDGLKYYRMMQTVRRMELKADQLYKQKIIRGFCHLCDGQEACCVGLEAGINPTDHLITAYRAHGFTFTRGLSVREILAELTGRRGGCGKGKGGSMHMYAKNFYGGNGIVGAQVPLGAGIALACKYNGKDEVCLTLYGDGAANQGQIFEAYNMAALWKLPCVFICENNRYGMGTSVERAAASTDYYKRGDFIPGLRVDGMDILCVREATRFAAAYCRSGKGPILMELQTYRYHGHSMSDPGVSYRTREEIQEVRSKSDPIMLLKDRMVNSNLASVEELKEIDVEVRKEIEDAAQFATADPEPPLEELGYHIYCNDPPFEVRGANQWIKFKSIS
As to conditions: Table 5, value marked with reference superscript (previously reported); cited from earlier work.

For test [3], the system named is E. coli K-12 (BW25113). The experiment in a line: Antimicrobial activity against E. coli K-12 grown in M9 minimal medium. The following applies: M9 minimal medium; preliminary. In kind it is cell-based. The source says: The product of DXP synthase, DXP, lies at a metabolic branchpoint. DXP serves as precursor not only for essential isoprenoids, but also is essential to central metabolism as a precursor to both thiamin diphosphate and pyridoxal phosphate. Thus, evaluation of antimicrobial activity of DXP synthase inhibitors in the standard, rich growth medium (CAMHB) which contains rescuing metabolites, likely underestimates the antimicrobial activities of these agents. Standard in vitro culture conditions may have poor predictive value for these agents in vivo; access to most nutrients is thought to be more difficult from the host than in nutrient rich media.

Test [4] has as its system wild-type K-12 E. coli (ATCC: MG1655). The experiment in a line: Antimicrobial activity against E. coli K-12 grown in CAMHB. In kind it is cell-based. On the procedure:
FIG. 7A and FIG. 7B are charts showing representative growth curves are shown for BAP (FIG. 7A) and BnAP (FIG. 7B). Alkylacetylphosphonates exert dose-dependent delay in E. coli K-12 (MG 1655) growth in CAMHB. Fractional growth (measured at 16 h, blue arrow) was determined relative to the no drug control. Standardized cell cultures were exposed to increasing concentrations of acetylphosphonate, and growth was determined by measuring the OD600 for a period of 16 hours. Acetylphosphonate concentration was varied from 0-5 mM: No drug (light blue), 0.08 mM (orange), 0.16 mM (gray), 0.31 mM (yellow), 0.63 mM (blue), 1.25 mM (green), 2.5 mM (dark blue) and 5.0 mM (brown).
Thus, BnAP, PentAP, HexAP and OctAP, also shown to inhibit DXP synthase, were evaluated for antimicrobial activity against wild-type K-12 E. coli (ATCC: MG1655) grown in rich medium (CAMHB).

Test [5] has as its target T2, E. coli DXP synthase (Escherichia coli, UniProt P77488).
T2 construct: made in house
The following applies: Table 5, value marked with reference superscript (previously reported); read-out: Ki^DXPS; cited from earlier work.

For test [6], the target named is T2, E. coli DXP synthase. The test is described as follows: biochemical. On the procedure: FIG. 4A, FIG. 4B, and FIG. 4C are charts showing competitive inhibition of DXP synthase by pentylacetylphosphonate (PentAP; FIG. 4A), hexylacetylphosphonate (HexAP; FIG. 4B), and octylacetyl phosphonate (OctAP; FIG. 4C). Inhibition assays were performed as previously described^[18], [40]). […] Pyruvate concentration was varied from 12-240 μM and acetylphosphonate concentration was varied: 0 μM (∘), 10 μM (●), 25 μM (□) and 50 μM (▪). Experiments were performed in triplicate, and data were subjected to non-linear regression analysis for Ki determinations (GraphPad Prism). Representative Lineweaver-Burk plots (GraFit from Erithacus Software) are shown for PentAP (FIG. 4A), HexAP (FIG. 4B) and OctAP (FIG. 4C) to illustrate the competitive inhibition mode with respect to pyruvate.
Inhibition of DXP synthase was measured as previously described^[13], [18]. […] Acetylphosphonate concentration was varied from 0 to 250 μM. […] Experiments were performed in triplicate for BAP and in duplicate for iPrAP
In order to evaluate the inhibitory activity of BnAP against DXP synthase, a continuous spectrophotometric coupled assay was used to measure formation of DXP by monitoring IspC consumption of NADPH (340 nm). ^[2] DXP synthase reaction mixtures (previously described) including BnAP (15, 30, and 60 μM), IspC (1 μM) and NADPH (100 μM) were pre-incubated at 37° C. for 5 minutes. Initial rates were measured after the reaction was initiated by the addition of DXP synthase. Inhibition of the coupling enzyme (IspC) by BnAP was not observed up to 1.5 mM. Experiments were performed in triplicate. Double reciprocal analysis of data was carried out using GraFit version 7 from Erithacus Software.

Test [7] concerns the target T3, DXP synthase (Escherichia coli, UniProt P77488).
T3 construct: made in house
T3 sequence (P77488 1-620): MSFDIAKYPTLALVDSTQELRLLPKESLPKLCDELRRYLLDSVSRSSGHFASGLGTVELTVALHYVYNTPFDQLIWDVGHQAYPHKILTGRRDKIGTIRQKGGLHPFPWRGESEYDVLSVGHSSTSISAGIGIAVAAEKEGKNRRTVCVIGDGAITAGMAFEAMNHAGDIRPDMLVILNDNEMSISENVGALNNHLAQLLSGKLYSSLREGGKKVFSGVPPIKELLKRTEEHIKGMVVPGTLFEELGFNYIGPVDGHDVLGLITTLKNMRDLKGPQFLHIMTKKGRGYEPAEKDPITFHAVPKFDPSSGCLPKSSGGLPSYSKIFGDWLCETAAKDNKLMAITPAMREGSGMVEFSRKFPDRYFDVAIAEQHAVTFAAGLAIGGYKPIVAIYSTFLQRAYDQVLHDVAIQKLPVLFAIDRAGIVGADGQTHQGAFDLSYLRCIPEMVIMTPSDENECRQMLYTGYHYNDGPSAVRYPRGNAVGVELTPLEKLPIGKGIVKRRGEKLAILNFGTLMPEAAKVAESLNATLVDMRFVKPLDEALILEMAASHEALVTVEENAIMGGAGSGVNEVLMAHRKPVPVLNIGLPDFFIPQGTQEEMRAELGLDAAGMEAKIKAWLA
The test is described as follows: Inhibition of DXP formation by nitroso substrates (HPLC-based assay). In kind it is biochemical, E. coli. As to conditions: 30 μM D-GAP, 80 μM pyruvate, 37° C.; average ± SEM. On the procedure:
Enzyme reactions were initiated by addition of 0.1 μM DXP synthase. Aliquots (150 μL) of the enzymatic mixture were removed between 0.5 and 3 minutes and quenched into ice-cold methanol (150 μL). Precipitated protein was removed by centrifugation, and the supernatant was diluted in an equal volume of water. The nitroso substrate was removed by extraction into acetonitrile (3×), using a previously described freeze-extraction technique. ^[32] […] The derivatization mixtures were analyzed by HPLC as previously described. ^[19] To determine initial reaction rates in the presence of varying inhibitor concentration, the D,L-GAP and DXP hydrazone HPLC peak areas were measured, and the product concentration was determined as a percent of total peak area and plotted against reaction time. Initial rates GraFit version 7 from Erithacus Software was utilized to generate IC50 curves.

Test [8] addresses T4, yeast TK (Saccharomyces cerevisiae, UniProt P23254).
T4 sequence (P23254 1-680): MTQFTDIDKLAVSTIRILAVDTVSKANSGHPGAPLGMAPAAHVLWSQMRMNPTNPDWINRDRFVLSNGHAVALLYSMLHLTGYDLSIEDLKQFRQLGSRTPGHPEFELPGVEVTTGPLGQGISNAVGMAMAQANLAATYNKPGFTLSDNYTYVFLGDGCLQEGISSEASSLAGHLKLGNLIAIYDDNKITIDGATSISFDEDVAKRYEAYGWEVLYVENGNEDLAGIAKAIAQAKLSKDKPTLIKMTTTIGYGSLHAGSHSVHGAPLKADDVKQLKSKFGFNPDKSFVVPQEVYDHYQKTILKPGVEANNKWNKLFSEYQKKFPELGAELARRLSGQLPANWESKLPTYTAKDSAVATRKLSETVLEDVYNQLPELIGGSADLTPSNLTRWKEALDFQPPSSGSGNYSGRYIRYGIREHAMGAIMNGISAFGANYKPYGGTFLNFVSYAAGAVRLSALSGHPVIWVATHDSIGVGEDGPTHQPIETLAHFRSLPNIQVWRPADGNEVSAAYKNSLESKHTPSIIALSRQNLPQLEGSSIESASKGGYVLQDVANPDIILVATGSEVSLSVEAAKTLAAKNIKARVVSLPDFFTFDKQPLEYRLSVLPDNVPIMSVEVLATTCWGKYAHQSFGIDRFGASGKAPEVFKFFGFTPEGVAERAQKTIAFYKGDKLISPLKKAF
As to conditions: ref [26]; cited from earlier work.

The test system of test [9] is porcine PDH E1 subunit. In kind it is biochemical. On the procedure:
Reaction mixtures containing 100 mM HEPES, pH 8.0, 2 mM MgCl2, 5 mM NaCl, 1 mM ThDP, 1 mg/mL BSA, 10-20 mM pyruvate, 10% DMSO v/v, and 10-300 μM nitroso substrate were pre-incubated at 37° C. for 5 min. Enzymatic reactions were initiated by addition of 0.5-2 μM DXP synthase (or 0.1 units/ml PDH) and monitored spectrophotometrically by measuring the rate of disappearance of the nitroso substrate at its corresponding λmax. Substrate concentration as a function of time was determined from absorbance values using Beer's Law. Initial reaction rates were determined from the linear range of the reaction progress curve, usually within 1-3 min. Data analysis to determine kcat and Km for each alternative substrate was carried out using GraFit version 7 from Erithacus Software.

Test [10] has as its target T5, E. coli DXP synthase (DXPS) (Escherichia coli, UniProt P77488).
T5 construct: made in house
T5 sequence (P77488 1-620): T3 sequence (P77488 1-620)
In kind it is biochemical. The following applies: 10-20 mM pyruvate, pH 8.0, 10% DMSO, 37° C., average ± SEM. On the procedure:
Reaction mixtures containing 100 mM HEPES, pH 8.0, 2 mM MgCl2, 5 mM NaCl, 1 mM ThDP, 1 mg/mL BSA, 10-20 mM pyruvate, 10% DMSO, 0.5 mM 5 mM nitroso substrate were pre-incubated at 37° C. for 5 min. […] Aliquots of enzymatic mixture were removed at various time intervals and quenched into an equal volume of cold methanol. Quenched mixtures were incubated on ice for 20 minutes. Precipitated proteins were removed by centrifugation, and the supernatant was analyzed by HPLC with UV detection using the following conditions: Flow rate=3 mL/min; Solvent A: 100 mM NH4OAc, pH 4.6; Solvent B: acetonitrile; Method: 0-100% B over 10 min. New products formed were extracted from the supernatant using ethyl acetate (3×). […] Products were subsequently characterized by mass spectrometry.
Reaction mixtures containing 100 mM HEPES, pH 8.0, 2 mM MgCl2, 5 mM NaCl, 1 mM ThDP, 1 mg/mL BSA, 10-20 mM pyruvate, 10% DMSO v/v, and 10-300 μM nitroso substrate were pre-incubated at 37° C. for 5 min. […] Substrate concentration as a function of time was determined from absorbance values using Beer's Law. Initial reaction rates were determined from the linear range of the reaction progress curve, usually within 1-3 min. Data analysis to determine kcat and Km for each alternative substrate was carried out using GraFit version 7 from Erithacus Software.

Turning to `CCCCOP(=O)(O)C(C)=O` [BAP, butylacetylphosphonate, reference compound], the “Ki^PDH/Ki^DXPS” value in test [1] is reported as 60. The Ki is 335 ± 8 µM in [2] and 5.6 ± 0.8 µM in test [5]. The compound further gave an MIC in test [3] of 3100 µM (≈ 558 µg/mL). Besides, in test [4] (FIG. 10, in words), the “antimicrobial effects against E. coli (MG1655)” value is listed as “dose-dependent inhibition”. The “minimum inhibitory concentration (MIC90)” value in test [4] (rich medium (CAMHB), 16 h) worked out at 2500 µM (≈ 450 µg/mL). Also, the IC50 in [6] (pyruvate 95 μM, D-GAP 56 μM, error 95% Confidence Interval, read-out: IC50 (DXP synthase)) is 24 ± 4 µM.
Regarding `COc1ccc(CCOP(=O)([O-])C(C)=O)cc1.[Li+]` [Compound 4], the IC50 came to 844 ± 170 µM in [7] and 194 µM in [6] (Table 4, read-out: In vitro DXP syn IC50). Moreover, the “substrate usage by yeast TK” value in [8] is given as “not a substrate”. Besides, the Km in [9] (10-20 mM pyruvate, pH 8.0, 37° C., average ± SEM) was found to be 408 ± 60 µM; in test [10] (acceptor substrate) it was 54 ± 13 µM. Moreover, the “Km^PDH/Km^DXPS” value in test [9] (ratio porcine PDH E1 vs E. coli DXPS) came out at 7.5. Also, the kcat in test [10] (acceptor substrate turnover) is 0.015 ± 0.0017 s⁻¹.
